# Measured values from patent publication US20080161232A1, “C5a Receptor Antagonist” (JERINI AG, priority 2005, published 2008).
# Positions of bridges follow the written chain, without caps; N, C: chain ends. Non-standard residues stand in square brackets, D forms with d. Residues, ends and D or L forms follow the SMILES beside them. Phe(3-Cl) = N[C@@H](Cc1cccc(Cl)c1)C(=O)O; Phe(3-OMe) = COc1cccc(C[C@H](N)C(=O)O)c1; Phe(3-F) = N[C@@H](Cc1cccc(F)c1)C(=O)O; Phe(4-F) = N[C@@H](Cc1ccc(F)cc1)C(=O)O; dPhe(2-Me) = Cc1ccccc1C[C@@H](N)C(=O)O; Phe(2-F) = N[C@@H](Cc1ccccc1F)C(=O)O; Bta = N[C@@H](Cc1csc2ccccc12)C(=O)O; cisHyp = O=C(O)[C@@H]1C[C@H](O)CN1; d(hCha) = N[C@H](CCC1CCCCC1)C(=O)O; Hyp = O=C(O)[C@@H]1C[C@@H](O)CN1; NMeF = CN[C@@H](Cc1ccccc1)C(=O)O; d(hLeu) = CC(C)CC[C@@H](N)C(=O)O; 2Thi = N[C@@H](Cc1cccs1)C(=O)O; Cit = NC(=O)NCCC[C@H](N)C(=O)O; dCha = N[C@H](CC1CCCCC1)C(=O)O; dChg = N[C@@H](C(=O)O)C1CCCCC1; Nle = CCCC[C@H](N)C(=O)O; Orn = NCCC[C@H](N)C(=O)O; Aze = O=C(O)[C@@H]1CCN1; NBuGly = CCCCNCC(=O)O
# Molecular target: T1, human C5aR(CD88) (Homo sapiens, UniProt P21730)
# T1 construct: expressed in transfected cells; host or cells: rat basophilic leukemia cells (RBL)
# T1 sequence (P21730 1-350): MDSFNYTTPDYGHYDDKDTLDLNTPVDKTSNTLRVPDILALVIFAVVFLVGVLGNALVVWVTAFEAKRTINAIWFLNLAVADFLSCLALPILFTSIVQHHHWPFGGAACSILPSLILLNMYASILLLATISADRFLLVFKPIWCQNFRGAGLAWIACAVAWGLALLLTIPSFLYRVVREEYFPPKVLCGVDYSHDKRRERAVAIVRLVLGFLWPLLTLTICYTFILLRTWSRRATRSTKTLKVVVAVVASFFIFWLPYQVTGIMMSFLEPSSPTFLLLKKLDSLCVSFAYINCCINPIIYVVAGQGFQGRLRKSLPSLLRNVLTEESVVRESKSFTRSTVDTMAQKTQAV
# Assay: Determination of the IC50 value in an enzyme release assay (functional assay, antagonistic activity)
# Assay type: cell-based
# Settings: antagonistic activity; IC50 group in enzyme release assay, RBL cells expressing human C5aR(CD88); read-out: activity (group)
row,Compound,IC50 [nM]
1,"CC(=O)N[C@@H](Cc1ccccc1)C(=O)N[C@H]1CCCNC(=O)[C@H](Cc2ccc(O)cc2)NC(=O)[C@H](Cc2c[nH]c3ccccc23)NC(=O)[C@@H](CC2CCCCC2)NC(=O)[C@@H]2CCCN2C1=O [Compound 146, Ac-Phe-[Orn-Pro-cha-Trp-Tyr]] (Ac-F[Orn]P[dCha]WY; lactam 2-C)",20 to 50
2,"CCCC[C@@H]1NC(=O)[C@H](Cc2c[nH]c3ccccc23)NC(=O)[C@@H](Cc2ccccc2C)NC(=O)[C@@H]2CCCN2C(=O)[C@@H](NC(=O)[C@H](Cc2ccccc2)NC(C)=O)CCCNC1=O [Compound 147, Ac-Phe-[Orn-Pro-omf-Trp-Nle]] (Ac-F[Orn]P[dPhe(2-Me)]W[Nle]; lactam 2-C)",10 to 20
3,"CCCCN(CC(=O)N1CCC[C@H]1C(=O)N[C@H](CC1CCCCC1)C(=O)N[C@@H](Cc1c[nH]c2ccccc12)C(=O)N[C@@H](Cc1ccccc1)C(N)=O)C(=O)[C@H](Cc1ccccc1)NC(C)=O [Compound 148, Ac-Phe-N(nBu)-CH2—CO-Pro-cha-Trp-Phe-NH2] (Ac-F[NBuGly]P[dCha]WF-NH2)",200 to 2000
4,"CC(=O)N[C@@H](C)C(=O)N[C@@H](Cc1ccccc1)C(=O)N[C@@H](CCCN)C(=O)N1CC[C@H]1C(=O)N[C@H](CC1CCCCC1)C(=O)N[C@@H](Cc1csc2ccccc12)C(=O)N[C@@H](Cc1ccccc1)C(N)=O [Compound 151, Ac-Ala-Phe-Orn-Aze-cha-Bta-Phe-NH2] (Ac-AF[Orn][Aze][dCha][Bta]F-NH2)",20 to 50
5,"CC(=O)N[C@@H](CCCNC(N)=O)C(=O)N[C@@H](Cc1ccccc1)C(=O)N[C@@H](CCCN)C(=O)N1CC[C@H]1C(=O)N[C@H](CC1CCCCC1)C(=O)N[C@@H](Cc1csc2ccccc12)C(=O)N[C@@H](Cc1ccccc1)C(N)=O [Compound 153, Ac-Cit-Phe-Orn-Aze-cha-Bta-Phe-NH2] (Ac-[Cit]F[Orn][Aze][dCha][Bta]F-NH2)",20 to 50
6,"CC(=O)NCC(=O)N[C@@H](Cc1ccccc1)C(=O)N[C@@H](CCCN)C(=O)N1CC[C@H]1C(=O)N[C@H](CC1CCCCC1)C(=O)N[C@@H](Cc1csc2ccccc12)C(=O)N[C@@H](Cc1ccccc1)C(N)=O [Compound 154, Ac-Gly-Phe-Orn-Aze-cha-Bta-Phe-NH2] (Ac-GF[Orn][Aze][dCha][Bta]F-NH2)",10 to 20
7,"CC(=O)NCC(=O)N[C@@H](Cc1ccccc1)C(=O)N[C@@H](CCCN)C(=O)N1CC[C@H]1C(=O)N[C@@H](C(=O)N[C@@H](Cc1csc2ccccc12)C(=O)N[C@@H](Cc1ccccc1)C(N)=O)C1CCCCC1 [Compound 155, Ac-Gly-Phe-Orn-Aze-chg-Bta-Phe-NH2] (Ac-GF[Orn][Aze][dChg][Bta]F-NH2)",50 to 200
8,"CC(=O)NCC(=O)N[C@@H](Cc1ccccc1)C(=O)N[C@@H](CCCN)C(=O)N1CC[C@H]1C(=O)N[C@H](CCC1CCCCC1)C(=O)N[C@@H](Cc1csc2ccccc12)C(=O)N[C@@H](Cc1ccccc1)C(N)=O [Compound 156, Ac-Gly-Phe-Orn-Aze-hch-Bta-Phe-NH2] (Ac-GF[Orn][Aze][d(hCha)][Bta]F-NH2)",50 to 200
9,"CC(=O)NCC(=O)N[C@@H](Cc1cccs1)C(=O)N[C@@H](CCCN)C(=O)N1CC[C@H]1C(=O)N[C@H](CC1CCCCC1)C(=O)N[C@@H](Cc1csc2ccccc12)C(=O)N[C@@H](Cc1ccccc1)C(N)=O [Compound 157, Ac-Gly-Thi-Orn-Aze-cha-Bta-Phe-NH2] (Ac-G[2Thi][Orn][Aze][dCha][Bta]F-NH2)",20 to 50
10,"CC(=O)N1C[C@H](O)C[C@H]1C(=O)N[C@@H](Cc1ccccc1)C(=O)N[C@@H](CCCN)C(=O)N1CC[C@H]1C(=O)N[C@H](CC1CCCCC1)C(=O)N[C@@H](Cc1csc2ccccc12)C(=O)N[C@@H](Cc1ccccc1)C(N)=O [Compound 159, Ac-Hyp-Phe-Orn-Aze-cha-Bta-Phe-NH2] (Ac-[Hyp]F[Orn][Aze][dCha][Bta]F-NH2)",20 to 50
11,"CC(=O)N[C@@H](CCCCN)C(=O)N[C@@H](Cc1ccccc1)C(=O)N[C@@H](CCCN)C(=O)N1CC[C@H]1C(=O)N[C@H](CC1CCCCC1)C(=O)N[C@@H](Cc1csc2ccccc12)C(=O)N[C@@H](Cc1ccccc1)C(N)=O [Compound 160, Ac-Lys-Phe-Orn-Aze-cha-Bta-Phe-NH2] (Ac-KF[Orn][Aze][dCha][Bta]F-NH2)",20 to 50
12,"CC(=O)N[C@@H](Cc1cccc(F)c1)C(=O)N[C@@H](CCCN)C(=O)N1CCC[C@H]1C(=O)N[C@H](CC1CCCCC1)C(=O)N[C@@H](Cc1csc2ccccc12)C(=O)N[C@@H](Cc1ccccc1)C(N)=O [Compound 161, Ac-Mff-Orn-Pro-cha-Bta-Phe-NH2] (Ac-[Phe(3-F)][Orn]P[dCha][Bta]F-NH2)",50 to 200
13,"CC(=O)N[C@@H](Cc1cccc(F)c1)C(=O)N[C@@H](CCCN)C(=O)N1CCC[C@H]1C(=O)N[C@H](CCC(C)C)C(=O)N[C@@H](Cc1csc2ccccc12)C(=O)N[C@@H](Cc1ccccc1)C(N)=O [Compound 162, Ac-Mff-Orn-Pro-hle-Bta-Phe-NH2] (Ac-[Phe(3-F)][Orn]P[d(hLeu)][Bta]F-NH2)",50 to 200
14,"CC(=O)N[C@@H](Cc1cccc(F)c1)C(=O)N[C@@H](CCCN)C(=O)N1CCC[C@H]1C(=O)N[C@H](CCC(C)C)C(=O)N[C@@H](Cc1cccc(Cl)c1)C(=O)N[C@@H](Cc1cccc(F)c1)C(N)=O [Compound 163, Ac-Mff-Orn-Pro-hle-Mcf-Mff-NH2] (Ac-[Phe(3-F)][Orn]P[d(hLeu)][Phe(3-Cl)][Phe(3-F)]-NH2)",50 to 200
15,"COc1cccc(C[C@H](NC(C)=O)C(=O)N[C@@H](CCCN)C(=O)N2CCC[C@H]2C(=O)N[C@H](CCC(C)C)C(=O)N[C@@H](Cc2ccc(F)cc2)C(=O)N[C@@H](Cc2ccccc2)C(N)=O)c1 [Compound 164, Ac-Mmy-Orn-Pro-hle-Pff-Phe-NH2] (Ac-[Phe(3-OMe)][Orn]P[d(hLeu)][Phe(4-F)]F-NH2)",50 to 200
16,"CC(=O)N(C)[C@@H](Cc1ccccc1)C(=O)N[C@@H](CCCN)C(=O)N1CCC[C@H]1C(=O)N[C@H](CC1CCCCC1)C(=O)N[C@@H](Cc1csc2ccccc12)C(=O)N[C@@H](Cc1ccccc1)C(N)=O [Compound 165, Ac-NMF-Orn-Pro-cha-Bta-Phe-NH2] (Ac-[NMeF][Orn]P[dCha][Bta]F-NH2)",50 to 200
17,"CC(=O)N[C@@H](Cc1ccccc1F)C(=O)N[C@@H](CCCN)C(=O)N1CCC[C@H]1C(=O)N[C@H](CC1CCCCC1)C(=O)N[C@@H](Cc1csc2ccccc12)C(=O)N[C@@H](Cc1ccccc1)C(N)=O [Compound 166, Ac-Off-Orn-Pro-cha-Bta-Phe-NH2] (Ac-[Phe(2-F)][Orn]P[dCha][Bta]F-NH2)",20 to 50
18,"CC(=O)N[C@@H](Cc1ccccc1F)C(=O)N[C@@H](CCCN)C(=O)N1CCC[C@H]1C(=O)N[C@H](CCC(C)C)C(=O)N[C@@H](Cc1csc2ccccc12)C(=O)N[C@@H](Cc1ccccc1)C(N)=O [Compound 167, Ac-Off-Orn-Pro-hle-Bta-Phe-NH2] (Ac-[Phe(2-F)][Orn]P[d(hLeu)][Bta]F-NH2)",20 to 50
19,"CC(=O)N[C@@H](CCCN)C(=O)N[C@@H](Cc1ccccc1)C(=O)N[C@@H](CCCN)C(=O)N1CC[C@H]1C(=O)N[C@H](CC1CCCCC1)C(=O)N[C@@H](Cc1csc2ccccc12)C(=O)N[C@@H](Cc1ccccc1)C(N)=O [Compound 168, Ac-Orn-Phe-Orn-Aze-cha-Bta-Phe-NH2] (Ac-[Orn]F[Orn][Aze][dCha][Bta]F-NH2)",50 to 200
20,"CC(=O)N[C@@H](Cc1ccc(F)cc1)C(=O)N[C@@H](CCCN)C(=O)N1CCC[C@H]1C(=O)N[C@H](CC1CCCCC1)C(=O)N[C@@H](Cc1csc2ccccc12)C(=O)N[C@@H](Cc1ccccc1)C(N)=O [Compound 169, Ac-Pff-Orn-Pro-cha-Bta-Phe-NH2] (Ac-[Phe(4-F)][Orn]P[dCha][Bta]F-NH2)",20 to 50
21,"CC(=O)N[C@@H](Cc1ccc(F)cc1)C(=O)N[C@@H](CCCN)C(=O)N1CCC[C@H]1C(=O)N[C@H](CCC(C)C)C(=O)N[C@@H](Cc1csc2ccccc12)C(=O)N[C@@H](Cc1ccccc1)C(N)=O [Compound 170, Ac-Pff-Orn-Pro-hle-Bta-Phe-NH2] (Ac-[Phe(4-F)][Orn]P[d(hLeu)][Bta]F-NH2)",50 to 200
22,"CC(=O)N[C@@H](Cc1ccc(F)cc1)C(=O)N[C@@H](CCCN)C(=O)N1CCC[C@H]1C(=O)N[C@H](CCC(C)C)C(=O)N[C@@H](Cc1cccc(Cl)c1)C(=O)N[C@@H](Cc1ccc(F)cc1)C(N)=O [Compound 171, Ac-Pff-Orn-Pro-hle-Mcf-Pff-NH2] (Ac-[Phe(4-F)][Orn]P[d(hLeu)][Phe(3-Cl)][Phe(4-F)]-NH2)",50 to 200
23,"CC(=O)N[C@@H](Cc1ccccc1)C(=O)N[C@H]1CSSC[C@@H](C(N)=O)NC(=O)[C@H](Cc2ccccc2)NC(=O)[C@H](Cc2csc3ccccc23)NC(=O)[C@@H](CC2CCCCC2)NC(=O)[C@@H]2CCCN2C1=O [Compound 172, Ac-Phe-[Cys-Pro-cha-Bta-Phe-Cys]-NH2] (Ac-FCP[dCha][Bta]FC-NH2; disulfide 2-7)",50 to 200
24,"CCCC[C@@H]1NC(=O)[C@H](Cc2c[nH]c3ccccc23)NC(=O)[C@@H](CC2CCCCC2)NC(=O)[C@H](CC(N)=O)NC(=O)[C@@H](NC(=O)[C@H](Cc2ccccc2)NC(C)=O)CCCNC1=O [Compound 173, Ac-Phe-[Orn-Asn-cha-Trp-Nle]] (Ac-F[Orn]N[dCha]W[Nle]; lactam 2-C)",50 to 200
25,"CCCC[C@@H]1NC(=O)[C@H](Cc2c[nH]c3ccccc23)NC(=O)[C@@H](CC2CCCCC2)NC(=O)[C@@H]2CCN2C(=O)[C@@H](NC(=O)[C@H](Cc2ccccc2)NC(C)=O)CCCNC1=O [Compound 174, Ac-Phe-[Orn-Aze-cha-Trp-Nle]] (Ac-F[Orn][Aze][dCha]W[Nle]; lactam 2-C)",50 to 200
26,"CCCC[C@@H]1NC(=O)[C@H](Cc2c[nH]c3ccccc23)NC(=O)[C@@H](CC2CCCCC2)NC(=O)[C@@H]2C[C@H](O)CN2C(=O)[C@@H](NC(=O)[C@H](Cc2ccccc2)NC(C)=O)CCCNC1=O [Compound 175, Ac-Phe-[Orn-Chy-cha-Trp-Nle]] (Ac-F[Orn][cisHyp][dCha]W[Nle]; lactam 2-C)",50 to 200
